“Also recorded” adds a separate entry of the source. Structures can show the parent of a compound that is named as a salt.
What was measured:
yeast prions = assay type: cell-based; conditions: erg6Δ [PSI+] yeast strain, compound spotted on filter, halo of red [psi-] colonies
[1] = test system: N-terminal fragment of Huntingtin derivative with 48 glutamines (Htt48) in 293T cells; assay: 293T cells transfected with Htt48, immunoblot of SDS lysates with Htt 2B4 antibody; assay type: cell-based; conditions: for activity on Htt48 accumulation: 293T cells, up to 100 μM
[2] = test system: aggregated Htt48 in 293T cells; assay: filter retardation assay of lysates of Htt48-transfected 293T cells; assay type: cell-based; conditions: lysates 48 h post-transfection
[3] = test system: truncated huntingtin with 73Q repeats (T73) in NG108-15 cells; assay: NG108-15 neuronal-like cell model of HD, immunoblot of T73; assay type: cell-based; conditions: drugs added 12 h post-induction, extracts 3 days after treatment
Procedure: (§1) NG108-15 cells were induced for differentiation and T73 expression as described in Lunkes et al, 2002 and treated with the indicated compounds in DMSO at the indicated doses or DMSO alone 12 h post-induction. SDS lysates collected […] were analyzed by SDS-PAGE followed by immunoblot with Htt 2B4 and vimentin antibodies. Images were acquired and quantified with the Chemi-Smart system (Vilber Lourmat). Quantification of T73 signals is presented as histograms. Signal from DMSO treated cells is used as a reference and set as 1.
The Guanabenz (Psi114) and Chloroguanabenz (Cl-Psi114) effects were so far tested in actively dividing yeast and 293T cells (Lunkes et al., 1998). Because neurons are the target of Huntington and the threat for accumulation of misfolded proteins being exacerbated in neuronal, post-mitotic cells, the inventors next tested the effect of Psi114 and Cl-Psi114 in NG10815 neuronal-like cell model of HD. NG108-15 cells were induced for expression of truncated huntingtin with 73Q repeats (T73) and differentiation.
Drugs were added 12 h post-induction at the indicated doses. Protein extracts were collected 3 days after treatment and analyzed by immunoblots. […] The aggregates formed in these cells were below the detection level of the filter retardation assay precluding a robust quantitative analysis of the effects of the molecules on aggregate. […]

NG108-15 cells = assay: vimentin level in NG108-15 neuronal-like cell model of HD; assay type: cell-based; conditions: drugs added 12 h post-induction, extracts 3 days after treatment
Procedure: as §1
Drugs were added 12 h post-induction at the indicated doses. Protein extracts were collected 3 days after treatment and analyzed by immunoblots. […] The aggregates formed in these cells were below the detection level of the filter retardation assay precluding a robust quantitative analysis of the effects of the molecules on aggregate. However, because both aggregates and pathological symptoms are reversible with blockade of pathological protein expression, it is likely that aggregates in NG108-15 cells will diminish as a consequence of decreased accumulation of T73 by treating neurons with Psi114 or Cl-Psi114.

[4] = test system: full length endogenous Huntingtin in HD patient lymphoblastoid cell line; assay: full length endogenous Huntingtin in HD patient lymphoblastoid cell line; assay type: cell-based
Excerpt: (§2) Psi114 and Cl-Psi114 reduce polyQ accumulation both in their soluble and insoluble form. In developing therapeutic approaches, targeting specifically the pathogenic fragment of Huntingtin is a fundamental concern because Huntingtin is an essential gene. The inventors tested the effect of active compounds on endogenous full length Huntingtin in the same extracts as tested for the N-terminal fragment of Huntingtin. Psi114 and Cl-Psi114 have no effect on the levels of full length endogenous Huntingtin in 293T cells while these 2 compounds effectively reduce accumulation of the N-terminal pathogenic fragment of Huntingtin (FIG. 1b). Cl-Psi114 has also no effect on the level of full length endogenous Huntingtin in HD patient lymphoblastoid cell line.

[5] = test system: full length endogenous Huntingtin in 293T cells; assay: immunoblot of full length endogenous Huntingtin in 293T cells; assay type: cell-based; conditions: same extracts as for the N-terminal fragment
Procedure: b: 293T cells were transfected with Htt48 and treated with the indicated compounds in DMSO at the indicated doses or DMSO alone 4 h posttransfection. SDS lysates collected 48 h post-transfection were analyzed on a 10% SDS-PAGE followed by immunoblot with Htt 2B4 and vimentin antibodies. To reveal full length Huntingtin, the same extracts were analyzed on a 4.5% SDS-PAGE followed by immunoblot PAGE followed by immunoblot with an oligoclonal mixture of Huntingtin antibodies: 2B4, 4C8 and 2E8.
as §2

In the case of `N=C(N)N` [GuHCL, guanidine hydrochloride], the “activity in the yeast anti-prion screen” value (yeast prions) is reported as “positive control”.

With `Clc1cccc(Cl)c1N=C1NCCN1` [Psi211, Clonidine] the “activity on Htt48 accumulation” value [1] was “completely inactive”.

In the case of `N=C(N)N/N=C/c1c(Cl)ccc(Cl)c1Cl` [Cl-Psi114, Chloroguanabenz], the “levels of aggregated Htt48” value [2] is reported as “decrease in a dose dependent manner”, the T73 level [3] is reported as “reduction of T73 in a dose dependant manner” and the “activity in the yeast anti-prion screen” value (yeast prions) is reported as “active; also recorded: more active in the yeast anti-prion screen that Psi114”. For the same compound, the vimentin level (NG108-15 cells) was “remains unaltered”, the “effect on level of full length endogenous Huntingtin” value [4] was “no effect” and the “effect on levels of full length endogenous Huntingtin” value [5] was “no effect”.

In the case of `Nc1c(/N=N/c2ccc(-c3ccc(/N=N/c4cc(S(=O)(=O)O)c5ccccc5c4N)cc3)cc2)cc(S(=O)(=O)O)c2ccccc12` [Congo red], the “activity in the Htt48 293T system” value ([1]; dose of 500 μM) is reported as “barely detectable activity”.

With `c1ccc(C2CC2)c(OCC2=NCCN2)c1` [Psi214, Cirazoline] the toxicity (293T cells) was “some toxicity”.

In the case of `C1COC(NC(C2CC2)C2CC2)=N1` [Psi215, Rilmenidine], the toxicity (293T cells) is reported as “some toxicity”.

`N=C(N)N/N=C/c1c(Cl)cccc1Cl` [Psi114, Guanabenz] was tested, and the “levels of aggregated Htt48” value [2] was “decrease in a dose dependent manner; also recorded: delayed”, the T73 level [3] was “reduction of T73 in a dose dependant manner” and the “activity in the yeast anti-prion screen” value (yeast prions) was “potent activity against yeast prions; also recorded: active in yeast cells”. For the same compound, the vimentin level (NG108-15 cells) was “remains unaltered” and the “effect on levels of full length endogenous Huntingtin” value [5] was “no effect”.

`CCC1(C2=NCCN2)Cc2ccccc2O1` (centres unmarked) [Psi216, Efaroxan] was tested, and the “activity on Htt48 accumulation” value [1] was “completely inactive”.

— patent US7932422B2, “Use of chlorine guanabenz derivatives for treating polyglutamine expansion associated diseases” (priority 2006, dated 2011)
